The target in assay [1] is T1, Protein-S-isoprenylcysteine O-methyltransferase (Homo sapiens, UniProt O60725). Description: Inhibition of human ICMT at 10 uM by vapor diffusion assay.
The target of assay [2] is T1, Protein-S-isoprenylcysteine O-methyltransferase. In words: Substrate activity at human ICMT by vapor diffusion assay.
Assay [3] shares this target. In words: Inhibition of human ICMT by vapor diffusion assay.
Assay [4] has the same target. In words: Inhibition of human ICMT at 25 uM by vapor diffusion assay.

From ChEMBL document CHEMBL1828533, “Lipid and sulfur substituted prenylcysteine analogs as human Icmt inhibitors” (Bioorg Med Chem Lett, 2011) come the findings set out here.

Active and inactive are the calls of the source. No cut-off for these calls is given here.

T1 sequence (O60725 whole entry, the tested form may be a part): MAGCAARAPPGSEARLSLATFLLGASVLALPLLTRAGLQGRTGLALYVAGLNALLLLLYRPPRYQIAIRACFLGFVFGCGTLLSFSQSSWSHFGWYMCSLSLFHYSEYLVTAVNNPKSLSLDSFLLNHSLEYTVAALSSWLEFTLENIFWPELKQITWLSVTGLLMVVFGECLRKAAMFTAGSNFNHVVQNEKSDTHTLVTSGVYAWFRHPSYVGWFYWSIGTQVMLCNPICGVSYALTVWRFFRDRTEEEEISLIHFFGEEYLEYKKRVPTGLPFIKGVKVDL

As to `CCCc1ccc(CC/C(C)=C/CSC[C@H](NC(C)=O)C(=O)O)cc1`, the inhibition – broadly, the relative decrease from the control value, in per cent – in assay [1] was 20.7%. In turn, `CC(C)=CCC/C(C)=C/CC/C(C)=C/Cc1cn(C[C@H](NC(=O)c2ccccc2-c2ccccc2)C(=O)O)nn1` yielded an inhibition in assay [1] of 17%. Further, the result in assay [2] was inactive. For the compound `CC(=O)N[C@@H](Cn1cc(C/C=C(\C)CC/C=C(\C)CCC=C(C)C)nn1)C(=O)O`, in assay [1], the inhibition was found to be 19.5%. The result in assay [2] was inactive. Regarding `CCCCCc1ccc(CC/C(C)=C/CSC[C@H](NC(C)=O)C(=O)O)cc1`, the inhibition in assay [1] worked out at 23.1%. The same measure, in the same setting: the value for `CC(=O)N[C@@H](CSC/C=C(\C)COc1ccc(Cc2ccccc2)cc1)C(=O)O` was 9.8%. In turn, `CC(=O)N[C@@H](CSC/C=C(\C)COc1ccc2ccccc2c1)C(=O)O` registered an inhibition in assay [1] of 14.5%. The compound `CC(=O)N[C@@H](CSC/C=C(\C)CCCCOc1ccc(Oc2ccccc2)cc1)C(=O)O` registered an inhibition in assay [1] of 19.4%. Turning to `CCCCCCc1ccc(CC/C(C)=C/CSC[C@H](NC(C)=O)C(=O)O)cc1`, the inhibition in assay [1] stood at 18.8%. Still for that read-out and setting: the value for `CC(=O)N[C@@H](CSC/C=C(/Cc1ccc(-c2ccccc2)cc1)c1ccccc1)C(=O)O` was 26.6%. In assay [1], `CC(C)=CCC/C(C)=C/CC/C(C)=C/Cc1cn(C[C@H](NC(=O)c2ccccc2Oc2ccccc2)C(=O)O)nn1` showed an inhibition of 35.9%. For the same compound, the midpoint of inhibition in assay [3], the IC50, lay at 19.4 µM. As for `CC(=O)N[C@@H](CSC/C=C(/C)CC/C=C(/C)CCC=C(C)C)C(=O)O`, the inhibition in assay [4] was 100%. For `CCCCCCCCc1ccc(CC/C(C)=C/CSC[C@H](NC(C)=O)C(=O)O)cc1`, the inhibition in assay [1] worked out at 31.1%. Further, in assay [3], 34.6 µM corresponded to half-maximal inhibition (IC50). In turn, `CC(=O)N[C@@H](CSC/C=C(\C)CCCCOc1ccc2ccccc2c1)C(=O)O` had an inhibition in assay [1] of 22.4%. Compound `CC(C)=CCC/C(C)=C/CC/C(C)=C/Cc1cn(C[C@H](NC(=O)CCS(=O)(=O)c2ccccc2)C(=O)O)nn1` gave an inhibition in assay [1] of 22.7%. In addition, the outcome in assay [2] was inactive. `COc1ccc([N+](=O)[O-])c(C(=O)N[C@@H](Cn2cc(C/C=C(\C)CC/C=C(\C)CCC=C(C)C)nn2)C(=O)O)c1` registered an inhibition in assay [1] of 10.1%. Also, the result in assay [2] was inactive.

Compound `CC(=O)N[C@@H](CSC/C=C(/Cc1ccc2c(c1)Cc1ccccc1-2)c1ccccc1)C(=O)O` came in with an inhibition in assay [1] of 25.3%. On the same count and under the same terms, the same measure for `CC(=O)N[C@@H](CSC/C=C(\C)COc1ccc(Oc2ccccc2)cc1)C(=O)O`: 15.5%; for `CC(=O)N[C@@H](CSC/C=C(/Cc1ccccc1)c1ccccc1)C(=O)O`: 15.7%.
